Test results from patent US20060074079A1, “Solid pharmaceutical formulations comprising Diacereine and Meloxicam” (Leopoldo Espinosa Abdala, priority 2004, published 2006).

Tests used:
[1] = clinical trials, administered to 2 years; cited from earlier work
[2] = tested on: gout arthritis induced by intra-articular uric acid; assay: Pain Induced Functional Impairment model in the Rat (PIFIR), analgesic activity; type: in vivo, male Wistar rats; conditions: oral, single doses, rats with gout arthritis, FIG. 1
Protocol: The experiments were carried out using male Wistar rats having a body weight between 180 and 200 g. […] The number of test animals was taken to the minimal (6 animals for each experimental aspect). Animals were kept in a room with light/darkness cycles. Rats were fastened twelve hours prior the beginning of experiments, leaving only free access to water. All the experiments were run during the light phase, using the animals only once.
The evaluation of analgesic effects was carried out using the Pain Induced Functional Impairment model in the Rat (PIFIR) model. Animals were anesthetized in a glass desiccator saturated with ether vapors. Gout arthritis was induced, upon application of a intra-articular injection of 0.05 ml of uric acid suspended in mineral oil, in the right-side hind leg, exactly in the femoral-tibio-patellar joint. […] Variable measured was contact time of each hind leg of every rat in the cylinder.
Rats were administered with each of the compounds orally. […] This period of time (2.5 hours after administration of uric acid) was considered as time “0”, in order to administer in this point of time the antinociceptive or analgesic treatment and the temporary course of each treatment were determined during the following 4 continuous hours. […]
Data are expressed as Percentage of Functionality Index (FI %). […]

[3] = tested on: cyclooxygenase (COX) from kidney or platelet; conditions: from kidney or platelet (LaVilla et al., 1989); cited from earlier work
[4] = tested on: Interleukin-1 beta production in human monocytes; conditions: human monocytes in vitro (Berdah et al., 1993); cited from earlier work

SMILES	safety on long-term administration [1]	TC efficacy (analgesic effect, FI % temporal course) [2]	activity of cyclooxygenase (COX) [3]	Interleukin-1 beta production [4]
CC(=O)Oc1cccc2c1C(=O)c1c(OC(C)=O)cc(C(=O)O)cc1C2=O [Diacereine, 1,8-diacetoxy-3-carboxy-anthraquinone]	without having safety problems	unable to generate analgesic effects	does not disrupt	inhibit
O=C(O)c1cc(O)c2c(c1)C(=O)c1cccc(O)c1C2=O [reine, Reine]				inhibit
